Literature values, collected in patent US20250144314A1, “VITAMIN K1 INJECTION DEVICE KIT” (ORBICULAR PHARMACEUTICAL TECHNOLOGIES PRIVATE LIMITED, priority 2022, published 2025).

Settings: estimate

CC1=C(C/C=C(\C)CCC[C@H](C)CCC[C@H](C)CCCC(C)C)C(=O)c2ccccc2C1=O [vitamin K, Phytonadione]
absorbed vitamin K excreted from the body: over 60%
